Test in all cases: relative viability (nuclei count vs DMSO), 5 days (fraction); higher = more cells survive
Compound in test [1]: CC1(COc2ccc3c(c2)ncn3-c2ccc3cccc(N4CCC(N)CC4)c3n2)COC1 [Crenolanib] + O=C(c1cc(Cc2n[nH]c(=O)c3ccccc23)ccc1F)N1CCN(C(=O)C2CC2)CC1 [Olaparib] (partner 8 µM)
An outline of the steps:
(§1)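 A single step with final 0.05% Triton X-100, 1% formaldehyde and 1 ug/ml Hoechst fixed the cells and stained nuclei 5 days after treatment. Lung cancer cell lines in 1536-well plates had been treated by pin tool the day after seeding with one drug alone or a fixed anchor-drug dose plus five library-drug doses (not always all listed) in √10 steps, and nuclei were counted on 4× images. Relative viability is the ratio of nuclei in treated wells to nuclei in vehicle wells, taken as the median of duplicate plates.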

Compound in test [2]: CC1(COc2ccc3c(c2)ncn3-c2ccc3cccc(N4CCC(N)CC4)c3n2)COC1 [Crenolanib] + NC(=O)Nc1cc(-c2cccc(F)c2)sc1C(=O)N[C@H]1CCCNC1 [AZD7762] (partner 0.2 µM)
The procedure, abridged: as §1

Compound in test [3]: O=C1NC(=O)[C@@H](c2cn3c4c(cccc24)CCC3)[C@@H]1c1c[nH]c2ccccc12 [Tivantinib] + COc1cc2c(Oc3ccc(NC(=O)C4(C(=O)Nc5ccc(F)cc5)CC4)cc3F)ccnc2cc1OCCCN1CCOCC1 [Foretinib] (partner 0.25 µM)
The procedure, abridged:
as §1

Compound in test [4]: O=C1NC(=O)[C@@H](c2cn3c4c(cccc24)CCC3)[C@@H]1c1c[nH]c2ccccc12 [Tivantinib] + C[C@@H](Oc1cc(-c2cnn(C3CCNCC3)c2)cnc1N)c1c(Cl)ccc(F)c1Cl [Crizotinib] (partner 1 µM)
An outline of the steps: as §1

5 cell lines from the supplement of paper PMC10307832 can be followed below.

Take NCI-H2085: the relative viability in test [1] (first compound 0.03162 µM) worked out at 0.752; in test [1] (first compound 0.1 µM) it was 0.714; in test [1] (first compound 0.3162 µM), 0.782; in test [1] (first compound 1 µM) it was 0.784; in test [2] (first compound 0.03162 µM), 0.983; in test [2] (first compound 0.1 µM) it was 0.997. Besides, the relative viability in test [2] (first compound 0.3162 µM) was found to be 0.972; in test [2] (first compound 1 µM), 1; in test [3] (first compound 0.01 µM), 0.921; in test [3] (first compound 0.03162 µM) it was 1.13; in test [3] (first compound 0.1 µM), 0.916; in test [3] (first compound 0.3162 µM), 0.666. The relative viability is 0.909 in test [4] (first compound 0.01 µM), 0.76 in test [4] (first compound 0.03162 µM), 0.75 in test [4] (first compound 0.1 µM) and 0.756 in test [4] (first compound 0.3162 µM).

Regarding NCI-H2087, the relative viability turned out to be 0.602 in test [1] (first compound 0.01 µM); 0.643 in test [1] (first compound 0.03162 µM); 0.547 in test [1] (first compound 0.1 µM); 0.671 in test [1] (first compound 0.3162 µM); 0.623 in test [1] (first compound 1 µM); 1.33 in test [2] (first compound 0.01 µM). Besides, the relative viability in test [2] (first compound 0.03162 µM) was 1.18; in test [2] (first compound 0.1 µM), 1.39; in test [2] (first compound 0.3162 µM), 1.6; in test [2] (first compound 1 µM), 1.34; in test [3] (first compound 0.01 µM), 1.1; in test [3] (first compound 0.03162 µM) it was 1.16. Besides, the relative viability in test [3] (first compound 0.1 µM) was 0.914; in test [3] (first compound 0.3162 µM) it was 1.13; in test [4] (first compound 0.01 µM), 0.987; in test [4] (first compound 0.03162 µM), 0.913; in test [4] (first compound 0.1 µM), 0.856; in test [4] (first compound 0.3162 µM) it was 1.01.

Turning to NCI-H2126, the relative viability came to 0.928 in test [1] (first compound 0.01 µM); 0.91 in test [1] (first compound 0.03162 µM); 0.893 in test [1] (first compound 0.1 µM); 0.994 in test [1] (first compound 0.3162 µM); 0.952 in test [1] (first compound 1 µM); 1.07 in test [2] (first compound 0.01 µM). Moreover, the relative viability turned out to be 1.05 in test [2] (first compound 0.03162 µM); 0.927 in test [2] (first compound 0.1 µM); 1.05 in test [2] (first compound 0.3162 µM); 0.973 in test [2] (first compound 1 µM); 1.16 in test [3] (first compound 0.01 µM); 1.12 in test [3] (first compound 0.03162 µM). Besides, the relative viability turned out to be 1.04 in test [3] (first compound 0.1 µM); 0.829 in test [3] (first compound 0.3162 µM); 1.02 in test [4] (first compound 0.01 µM); 1.01 in test [4] (first compound 0.03162 µM); 0.983 in test [4] (first compound 0.1 µM); 1.03 in test [4] (first compound 0.3162 µM).

With NCI-H2170, the relative viability in test [1] (first compound 0.01 µM) was determined as 0.608; in test [1] (first compound 0.03162 µM), 0.674; in test [1] (first compound 0.1 µM), 0.54; in test [1] (first compound 0.3162 µM), 0.711; in test [1] (first compound 1 µM) it was 0.671; in test [2] (first compound 0.01 µM) it was 0.941. The relative viability in test [2] (first compound 0.03162 µM) amounted to 0.852; in test [2] (first compound 0.1 µM), 0.897; in test [2] (first compound 0.3162 µM), 0.934; in test [2] (first compound 1 µM) it was 0.852; in test [3] (first compound 0.01 µM), 0.975; in test [3] (first compound 0.03162 µM) it was 0.929. The relative viability was 1.02 in test [3] (first compound 0.1 µM), 1.31 in test [4] (first compound 0.01 µM), 1.13 in test [4] (first compound 0.03162 µM) and 1.04 in test [4] (first compound 0.1 µM).

With NCI-H2347, the relative viability in test [1] (first compound 0.01 µM) was found to be 0.555; in test [1] (first compound 0.03162 µM), 0.457; in test [1] (first compound 0.1 µM), 0.536; in test [1] (first compound 0.3162 µM), 0.59; in test [1] (first compound 1 µM) it was 0.636; in test [2] (first compound 0.01 µM), 0.815. Also, the relative viability in test [2] (first compound 0.03162 µM) turned out to be 0.772; in test [2] (first compound 0.1 µM), 0.678; in test [2] (first compound 0.3162 µM), 0.818; in test [2] (first compound 1 µM) it was 0.85; in test [3] (first compound 0.01 µM), 0.94; in test [3] (first compound 0.03162 µM) it was 1.12. The relative viability was found to be 0.712 in test [3] (first compound 0.1 µM); 1.05 in test [3] (first compound 0.3162 µM); 0.756 in test [4] (first compound 0.01 µM); 0.564 in test [4] (first compound 0.03162 µM); 0.74 in test [4] (first compound 0.1 µM); 0.674 in test [4] (first compound 0.3162 µM).
